Reference: US10016414B2, “Modulation of ubiquitination of synaptic proteins for the treatment of neurodegenerative and psychiatric disorders” (UNIVERSITY OF MASSACHUSETTS, priority 2010, dated 2018)

How the values were obtained:
[1] = test system: surface GluA1 (AMPAR) in hippocampal neurons; assay: Aβ-induced AMPAR endocytosis: surface GluA1 in cultured hippocampal neurons; assay type: cell-based, rat; conditions: for GluA1 surface expression (GluA1 puncta normalized to SV2 puncta and to naïve cultures): 2 hrs, naïve 100%±4%, n=3
Description: A. Micrograph showing GluA2 surface expression upon Aβ treatment in the presence or absence of Nutlin-3. Rat hippocampal neurons were cultured, and treated with Aβ or Aβ together with either Nutlin-3 (5 μM) or HLI373 (15 μM) for 2 hours. The final concentration of Aβ was 0.3 ng/mL. Naïve and Nutlin-3 and HLI373 treatments, without Aβ treatment, were used as controls. Surface expression of AMPARs was measured by labeling the cultured neurons in vivo with an antibody to the AMPAR subunit GluA1, followed by confocal microscopy and immunofluorescence quantification by MetaMorph. The number of GluA1 puncta was normalized to SV2 puncta (a presynaptic marker) and to the value in control naïve cultures. […] Scale bar=5 μm. B. Bar graph showing quantification of the percentage of surface GluA1 in response to the various treatment described in A. Results are presented as mean±SEM.
Soluble amyloid beta (Aβ) peptides contribute directly to synapse loss and decreased dendritic spine density and glutamate receptors at the synapse. Moreover, Aβ has been reported to induce AMPAR internalization in cultured neurons. To evaluate the effect of Mdm2 inhibitors on this process, cultured rat hippocampal neurons were treated for 2 hrs with Aβ (or Aβ together with either Nutlin-3 (5 μM) or HLI-373 (15 μM). Aβ can be prepared from 7PA2 Chinese hamster ovary (CHO) cells stably expressing human amyloid precursor protein (APP)751 containing the V717 mutation (Walsh et al., 2005; Shankar et al., 2007; Shankar et al., 2011), and is also available commercially from, e.g., rPeptide (Bogart, G A). The concentration of Aβ in the hippocampal cultures was 0.3 ng/mL. Naïve and Nutlin-3 and HLI-373 treatments were used as controls. Surface expression of AMPARs was measured by labeling the cultured neurons in vivo with an antibody to the AMPAR subunit GluA1, followed by confocal microscopy and immunofluorescence quantification by MetaMorph. The number of GluA1 puncta was normalized to SV2 puncta (a presynaptic marker) and to the value in control naïve cultures (see FIGS. 8A and B).
Minimum inhibitor concentrations of Nutlin-3a or HLI-373, as well as any other Mdm2 inhibitor identified using the screens described supra, can be readily determined by using different ranges of inhibitor concentrations and assessing the effects of the particular concentrations on surface expression of AMPARs. Similar results are expected with other inhibitors of PSD-95 ubiquitination by Mdm2, such as PSD-95 inhibitors.

[2] = oral gavage, 100 mg/kg once daily; between 1-8 hours after administration (Zhang et al., 2011); cited from earlier work
[3] = molecular target: T1, interaction between PSD-95 and Mdm2 (Mus musculus, UniProt P23804); assay: Mdm2 binding to PSD-95 in acute forebrain slices (Mdm2 immunoprecipitation, PSD-95 Western blot); assay type: cell-based; conditions: Nutlin-3 5 μM for 30 min, normalized to absence of Nutlin-3
T1 construct: from tissue; host or cells: acute mouse forebrain slices
T1 sequence (P23804 whole entry): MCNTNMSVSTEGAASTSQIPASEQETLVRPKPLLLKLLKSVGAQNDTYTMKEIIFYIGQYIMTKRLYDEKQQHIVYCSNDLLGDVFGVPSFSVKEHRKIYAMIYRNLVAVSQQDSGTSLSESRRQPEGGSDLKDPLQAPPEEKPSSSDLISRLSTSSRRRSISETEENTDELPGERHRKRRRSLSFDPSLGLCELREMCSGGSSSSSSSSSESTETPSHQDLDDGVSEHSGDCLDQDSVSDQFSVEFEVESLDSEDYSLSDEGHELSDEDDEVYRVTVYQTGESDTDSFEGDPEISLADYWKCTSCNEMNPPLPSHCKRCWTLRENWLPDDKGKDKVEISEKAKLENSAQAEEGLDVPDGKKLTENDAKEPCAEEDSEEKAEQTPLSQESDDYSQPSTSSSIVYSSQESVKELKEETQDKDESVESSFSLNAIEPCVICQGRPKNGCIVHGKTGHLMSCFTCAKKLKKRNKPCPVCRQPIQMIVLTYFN
Description: A. Immunoblot showing the interaction between Mdm2 and PSD-95 in the presence or absence of the Mdm2 inhibitor Nutlin-3. Acute mouse forebrain slices were treated with Nutlin-3 (5 μM for 30 min), followed by immunoprecipitation of Mdm2. Immunoprecipitates were subjected to Western blot analysis with anti-PSD-95 and anti-Mdm2 antibodies. IgG: control immunoprecipitation with mouse IgG.
B. A bar graph depicting the proportion of PSD-95 bound to Mdm2 from FIG. 6A, normalized to levels of PSD-95 bound to Mdm2 in the absence of Nutlin-3. There was a 60% decrease in the interaction of PSD-95 with Mdm2.
To test this hypothesis, acute mouse forebrain slices were prepared and subjected to treatment with or without Nutlin-3. The interaction between PSD95 and Mdm2 was assessed by immunoprecipitation of Mdm2, followed by Western blot analysis to assess the extent of PSD-95 binding. Consistent with PSD-95 binding to the same region of Mdm2 as other Mdm2 substrates, Nutlin-3 decreased the interaction between PSD-95 with Mdm2 by 60% (FIGS. 6A and B).

[4] = test system: surface GluA2 (AMPAR) in hippocampal neurons; assay: NMDA-induced AMPAR endocytosis: surface GluA2 by antibody feeding in hippocampal cultures; assay type: cell-based, rat; conditions: inhibitor 5 μM for 30 min before NMDA 100 μM for 3 min, then 15 min; naïve 100%±9.47%; n=3
Description: A. Micrograph showing GluA2 surface expression upon NMDA treatment in the presence or absence of Nutlin-3. Cultured hippocampal neurons were subjected to an antibody feeding protocol using an antibody that recognizes an extracellular domain of GluA2. The neurons were subsequently pretreated with Nutlin-3 (5 μM for 30 min) prior to NMDA treatment (100 μM for 3 min), followed by agonist washout. Neurons were incubated for an additional 15 min (with or without Nutlin-3) before immunocytochemical analysis of PSD-95 and surface GluA2 by confocal microscopy.
B. A bar graph depicting the proportion of GluA2 found at the surface of cultured hippocampal neurons upon treatment with or without NMDA, in the presence or absence of Nutlin-3. Results are presented as mean±SEM.
Brief stimulation of NMDARs induces AMPAR endocytosis in cultured neurons (Colledge et al., 2003; Bhattacharyya et al., 2009). To determine whether Nutlin-3a antagonizes NMDA-induced AMPAR endocytosis, measured as loss of surface AMPAR staining, the surface expression of GluA2 (a subunit of AMPARs in rat hippocampal cultures) was assessed. Surface GluA2 were labeled in vivo by an antibody feeding protocol using an antibody that recognizes an extracellular domain of GluA2 (Ehlers, 2000; Lin et al., 2000; Bhattacharyya et al., 2009). Neurons were pretreated with Nutlin-3a (5 μM for 30 min) prior to NMDA treatment. After brief stimulation with NMDA (100 μM for 3 min) and agonist washout, neurons were incubated for an additional 15 min (with or without Nutlin-3a) before immunocytochemical analysis of PSD-95 and surface GluA2 by confocal microscopy under the same settings. Immunostained puncta were quantified using MetaMorph software (3 neurons from 2 coverslips with approximately 450 puncta analyzed/condition) and the number of GluA2 puncta was normalized to the number of PSD-95 puncta.
Naïve and NMDA-stimulated conditions were used as controls. […]

| Compound | GluA1 surface expression (GluA1 puncta normalized to SV2 puncta and to naïve cultures) ([1]; co-treatment with Aβ 0.3 ng/mL, Nutlin 5 μM, HLI373 15 μM) | concentration in brain tissue [2] | decrease in the interaction of PSD-95 with Mdm2 [3] | GluA2 surface expression (GluA2 puncta normalized to PSD-95 puncta, versus naïve control) [4] | effect on loss of surface GluA1 induced by Aβ ([1]; Aβ 0.3 ng/mL, 2 hours, Nutlin-3 5 μM, HLI373 15 μM) | GluA1 surface expression (GluA1 puncta normalized to SV2 puncta and to naïve cultures) ([1]; inhibitor alone, without Aβ, Nutlin-3 5 μM, HLI-373 15 μM) |
| --- | --- | --- | --- | --- | --- | --- |
| COc1ccc(C2=NC(c3ccc(Cl)cc3)C(c3ccc(Cl)cc3)N2C(=O)N2CCNC(=O)C2)c(OC(C)C)c1 (single isomer, unassigned; (-)) [Nutlin-3a, (−)-4-(4,5-bis(4-chlorophenyl)-2-(2-isopropoxy-4-methoxyphenyl)-4,5-dihydro-1H-imidazole-1-carbonyl)piperazin-2-one] | 152.29%±19.88% | 1000 to 2000 nM | – | – | – | – |
| COc1ccc(C2=N[C@@H](c3ccc(Cl)cc3)[C@@H](c3ccc(Cl)cc3)N2C(=O)N2CCNC(=O)C2)c(OC(C)C)c1 [Nutlin-3] | – | – | 60% | 60.86±3.98% | prevented the loss of surface GluA1 induced by Aβ treatment | 90.6%±3.71% |
